Test results published in article PMC5797642 (Frontiers in Molecular Neuroscience, 2018).

Tests used:
Kv12.1 (Elk1) [1] = molecular target: T1, Kv12.1 (Elk1) (Homo sapiens, UniProt Q96L42); assay: whole-cell patch clamp, steady-state outward current at […] mV; assay type: cell-based; details: activator, pH 7.4, CHO cells, room temperature
T1 construct: gene KCNH8; full-length channel from pcDNA3.1-IRES-eGFP, transient expression in CHO dhFR- cells
T1 sequence (Q96L42 1-1107): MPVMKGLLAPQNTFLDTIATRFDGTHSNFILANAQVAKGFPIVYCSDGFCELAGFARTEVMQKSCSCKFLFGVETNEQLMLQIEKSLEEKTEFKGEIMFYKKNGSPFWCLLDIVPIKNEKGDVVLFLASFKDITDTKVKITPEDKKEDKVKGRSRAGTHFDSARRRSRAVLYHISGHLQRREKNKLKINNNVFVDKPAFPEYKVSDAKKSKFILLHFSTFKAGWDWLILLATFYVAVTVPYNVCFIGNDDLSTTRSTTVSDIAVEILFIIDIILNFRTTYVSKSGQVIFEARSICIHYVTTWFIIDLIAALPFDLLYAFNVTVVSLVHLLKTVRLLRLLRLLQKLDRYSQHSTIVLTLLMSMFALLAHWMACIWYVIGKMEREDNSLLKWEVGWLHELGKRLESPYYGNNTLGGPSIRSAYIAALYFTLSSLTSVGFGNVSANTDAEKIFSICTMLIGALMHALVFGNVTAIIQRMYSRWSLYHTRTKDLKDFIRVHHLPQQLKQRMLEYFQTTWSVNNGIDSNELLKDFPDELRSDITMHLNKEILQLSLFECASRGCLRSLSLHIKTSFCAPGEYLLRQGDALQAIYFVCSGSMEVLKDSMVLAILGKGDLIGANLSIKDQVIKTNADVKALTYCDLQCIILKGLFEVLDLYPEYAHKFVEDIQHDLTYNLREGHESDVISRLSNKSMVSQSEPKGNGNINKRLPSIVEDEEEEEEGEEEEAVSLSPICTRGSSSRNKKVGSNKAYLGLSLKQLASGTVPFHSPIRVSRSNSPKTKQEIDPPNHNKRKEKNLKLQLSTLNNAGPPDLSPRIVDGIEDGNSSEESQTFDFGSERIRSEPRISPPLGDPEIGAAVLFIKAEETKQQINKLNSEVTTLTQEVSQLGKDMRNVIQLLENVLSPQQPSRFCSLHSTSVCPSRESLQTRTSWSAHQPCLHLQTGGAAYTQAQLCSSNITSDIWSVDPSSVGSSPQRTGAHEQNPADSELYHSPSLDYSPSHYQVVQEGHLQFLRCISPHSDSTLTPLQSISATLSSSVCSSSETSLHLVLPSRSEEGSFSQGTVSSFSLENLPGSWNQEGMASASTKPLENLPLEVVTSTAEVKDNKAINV

Kv12.1 (Elk1) [2] = molecular target: T1, Kv12.1 (Elk1); assay: whole-cell patch clamp; assay type: cell-based; details: weak inhibitor; 100 mM; n = 9; CHO cells, room temperature

Compound: Nc1cccnc1 [3-AP, 3-aminopyridine]
- % potentiation at 3 mM (Kv12.1 (Elk1) [1]): ~ 7%

Compound: CC[N+](CC)(CC)CC [TEA, tetraethylammonium]
- I100mM TEA/IStart (Kv12.1 (Elk1) [2]): 0.83 ± 0.01
